Measurements published in patent US20240158446A1, “CYCLIC COMPOUND HAVING SELECTIVE INHIBITORY ACTION ON KRAS OVER HRAS AND NRAS” (CHUGAI SEIYAKU KABUSHIKI KAISHA, priority 2021, published 2024).
Like-named read-outs stand apart in the source and are kept apart here. Where a SMILES comes first, the peptide text is derived from it. Bridges are numbered along the chain shown (N, C = ends). [ ]: non-standard residue; d: D form. The star is where a group is joined. hPhe(3-Cl-4-CF3) = N[C@@H](CCc1ccc(C(F)(F)F)c(Cl)c1)C(=O)O; NPrPhe(4-CF3) = CCCN[C@@H](Cc1ccc(C(F)(F)F)cc1)C(=O)O; NMeGly(cPent) = CN[C@H](C(=O)O)C1CCCC1; Pro(4,4-F2) = O=C(O)[C@@H]1CC(F)(F)CN1; Hyp = O=C(O)[C@@H]1C[C@@H](O)CN1; NMeD = CN[C@@H](CC(=O)O)C(=O)O; NMeL = CN[C@@H](CC(C)C)C(=O)O; Morpholide = C1CN(*)CCO1; NMeA = CN[C@@H](C)C(=O)O; Ac5c = NC1(C(=O)O)CCCC1; Aze = O=C(O)[C@@H]1CCN1; Sar = CNCC(=O)O

How the values were obtained:
[1] = molecular target: GDP-bound HRAS wild-type protein (Homo sapiens, UniProt P01112); assay: Binding to HRAS by surface plasmon resonance (SPR), Single Cycle Kinetics; details: for HRAS/KRAS (ratio of KD value for HRAS to KD value for KRAS) / HRAS/KRAS (ratio of KD value with respect to HRAS to KD value with respect to KRAS): SPR, GDP-bound HRAS wild-type protein vs GDP-bound KRAS wild-type protein
[2] = molecular target: GDP-bound KRAS wild-type protein (Homo sapiens, UniProt P01116); assay: Binding to KRAS by surface plasmon resonance (SPR), Single Cycle Kinetics; details: GDP-bound KRAS wild-type protein, read-out: KRAS KD
[3] = molecular target: GDP-bound NRAS wild-type protein (Homo sapiens, UniProt P01111); assay: Binding to NRAS by surface plasmon resonance (SPR), Single Cycle Kinetics; details: for NRAS/KRAS (ratio of KD value for NRAS to KD value for KRAS) / NRAS/KRAS (ratio of KD value with respect to NRAS to KD value with respect to KRAS): SPR, GDP-bound NRAS wild-type protein vs GDP-bound KRAS wild-type protein
[4] = SPR Single Cycle Kinetics, 1:1 binding model

GDP-bound NRAS wild-type protein, sequence (P01111 whole entry): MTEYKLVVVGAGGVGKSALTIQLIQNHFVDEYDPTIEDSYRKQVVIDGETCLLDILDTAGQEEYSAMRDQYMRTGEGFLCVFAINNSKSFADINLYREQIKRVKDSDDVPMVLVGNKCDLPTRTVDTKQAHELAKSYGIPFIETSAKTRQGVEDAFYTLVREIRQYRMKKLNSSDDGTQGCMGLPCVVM
GDP-bound KRAS wild-type protein, sequence (P01116 whole entry): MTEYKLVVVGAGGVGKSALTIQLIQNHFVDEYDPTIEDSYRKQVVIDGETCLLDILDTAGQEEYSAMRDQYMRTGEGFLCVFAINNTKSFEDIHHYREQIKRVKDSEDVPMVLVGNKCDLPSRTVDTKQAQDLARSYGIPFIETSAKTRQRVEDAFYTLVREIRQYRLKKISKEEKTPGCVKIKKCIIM
GDP-bound HRAS wild-type protein, sequence (P01112 whole entry): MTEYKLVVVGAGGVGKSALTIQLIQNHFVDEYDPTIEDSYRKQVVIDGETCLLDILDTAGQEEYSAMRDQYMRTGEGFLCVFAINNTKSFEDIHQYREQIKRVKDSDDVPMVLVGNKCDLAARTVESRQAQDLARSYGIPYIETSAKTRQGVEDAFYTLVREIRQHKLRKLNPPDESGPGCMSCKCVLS

Structure (SMILES)	HRAS/KRAS (ratio of KD value for HRAS to KD value for KRAS) [1]	Kd ([2]; SPR, Single Cycle Kinetics) [pM]	NRAS/KRAS (ratio of KD value for NRAS to KD value for KRAS) [3]	HRAS/KRAS (ratio of KD value with respect to GDP-bound HRAS wild-type protein to KD value with respect to KRAS) ([1]; SPR KD ratio HRAS/KRAS, class symbols)	Kd [2, 4] [pM]	NRAS/KRAS (ratio of KD value with respect to GDP-bound NRAS wild-type protein to KD value with respect to KRAS) ([3]; SPR KD ratio NRAS/KRAS, class symbols)	HRAS/KRAS (ratio of KD value with respect to HRAS to KD value with respect to KRAS) [1]	NRAS/KRAS (ratio of KD value with respect to NRAS to KD value with respect to KRAS) [3]
CC[C@H](C)[C@@H]1NC(=O)[C@H](COC)N(C)C(=O)C[C@@H](C(=O)N(C)C)N(C)C(=O)[C@H](C2CCCC2)N(C)C(=O)C2(CC(C)(C)C2)NC(=O)[C@@H]2C[C@@H](C)CN2C(=O)[C@H](CCc2ccc(C(F)(F)F)c(OC)c2)NC(=O)CN(C)C(=O)[C@H](Cc2ccc(C)cc2)N2CC/C=C\C[C@@H](C2=O)N(C)C(=O)CN(C)C1=O [PP2387]	A (a compound having 10 or more and less than 20 is denoted as A)	110	A (a compound having 10 or more and less than 20 is denoted as A)	–	–	–	–	–
CCO[C@@H]1C[C@H]2C(=O)NC3(CC(C)(C)C3)C(=O)N(C)[C@@H](C(CC)CC)C(=O)N(C)[C@H](C(=O)N(C)C)CC(=O)N(C)[C@@H](C(C)C)C(=O)N[C@@H]([C@@H](C)CC)C(=O)N(C)CC(=O)N(C)[C@H]3C/C=C\CCN(C3=O)[C@@H](Cc3ccc(C(F)(F)F)cc3)C(=O)N(C)CC(=O)N[C@@H](CCc3ccc(Cl)c(Cl)c3)C(=O)N2C1 [PP2181]	A (a compound having 10 or more and less than 20 is denoted as A)	1400	AA (a compound having 20 or more is denoted as AA)	–	–	–	–	–
CCO[C@@H]1C[C@H]2C(=O)NC3(CC(C)(C)C3)C(=O)N(C)[C@@H](C3CCCC3)C(=O)N(C)[C@H](C(=O)N3CCCC3)CC(=O)N(C)[C@H]3CCCCCCc4ccc(cc4)C[C@@H](C(=O)N(C)CC(=O)N[C@@H](CCc4ccc(C(F)(F)F)c(OC)c4)C(=O)N2C1)N1CC/C=C\C[C@@H](C1=O)N(C)C(=O)CN(C)C(=O)[C@H]([C@@H](C)CC)NC3=O [PP3034, (1S,7S,11R,13S,19S,22S,26S,29S,35S,37Z)-19-cyclopentyl-11-ethoxy-7-[2-[3-methoxy-4-(trifluoromethyl)phenyl]ethyl]-3,3′,3′,18,21,25,31,34-octamethyl-29-[(1S)-1-methylpropyl]-22-(pyrrolidine-1-carbonyl)spiro[3,6,9,15,18,21,25,28,31,34,41-undecazapentacyclo[24.15.11.2^43,46.1^35,41.0^9,13]pentapentaconta-37,43(54),44,46(53)-tetraene-16,1′-cyclobutane]-2,5,8,14,17,20,24,27,30,33,55-undecone]	B (a compound having 3 or more and less than 10 is denoted as B)	110	A (a compound having 10 or more and less than 20 is denoted as A)	–	–	–	–	–
CCO[C@@H]1C[C@H]2C(=O)NC3(CCC3)C(=O)N(C)[C@@H](C3CCCC3)C(=O)N(CC)[C@H](C(=O)N(C)C)CC(=O)N(C)[C@@H](CC)C(=O)N[C@@H]([C@@H](C)CC)C(=O)N(C)CC(=O)N(C)[C@H]3C/C=C\CCN(C3=O)[C@@H](Cc3ccc(C(F)(F)F)cc3)C(=O)N(C)CC(=O)N[C@@H](CCc3cc(F)c(C(F)(F)F)c(F)c3)C(=O)N2C1 [PP0980]	B (a compound having 3 or more and less than 10 is denoted as B)	880	A (a compound having 10 or more and less than 20 is denoted as A)	–	–	–	–	–
CCC[C@H]1C(=O)N[C@@H]([C@@H](C)CC)C(=O)N(C)CC(=O)N(C)[C@H]2C/C=C\CCN(C2=O)[C@@H](Cc2ccc(C(F)(F)F)cc2)C(=O)N(C)CC(=O)N[C@@H](CCc2ccc(C(F)(F)F)c(OC)c2)C(=O)N2C[C@H](OCC)C[C@H]2C(=O)N(C)C2(CCC2)C(=O)N(C)[C@@H](C2CCCC2)C(=O)N(C)[C@H](C(=O)N(C)C)CC(=O)N1C [PP2312]	B (a compound having 3 or more and less than 10 is denoted as B)	30	A (a compound having 10 or more and less than 20 is denoted as A)	–	–	–	–	–
CCO[C@@H]1C[C@H]2C(=O)NC3(CC(C)(C)C3)C(=O)N(C)[C@@H](C3CCCC3)C(=O)N(C)[C@H](C(=O)N(C)CC)CC(=O)N(C)[C@H]3CCC/C=C/c4ccc(cc4)C[C@@H](C(=O)N(C)CC(=O)N[C@@H](CCc4ccc(Cl)c(Cl)c4)C(=O)N2C1)N1CC/C=C\C[C@@H](C1=O)N(C)C(=O)CN(C)C(=O)[C@H]([C@@H](C)CC)NC3=O [PP2577]	–	–	–	A (a compound having 10 or more and less than 20 is denoted as A)	120	A (a compound having 10 or more and less than 20 is denoted as A)	–	–
CCO[C@@H]1C[C@H]2C(=O)NC3(CCC3)C(=O)N(C)[C@@H](C3CCCC3)C(=O)N(C)[C@H](C(=O)N3CCOCC3)CC(=O)N(C)[C@@H](Cc3ccc(F)c(F)c3)C(=O)N[C@@H]([C@@H](C)CC)C(=O)N(C)CC(=O)N(C)[C@H]3CCCCCN(C3=O)[C@@H](Cc3ccc(C(F)(F)F)cc3)C(=O)N(C)CC(=O)N[C@@H](CCc3cc(F)c(C(F)(F)F)c(F)c3)C(=O)N2C1 [PP0928]	B (a compound having 3 or more and less than 10 is denoted as B)	1000	A (a compound having 10 or more and less than 20 is denoted as A)	–	–	–	–	–
CCCN1C(=O)CN(C)C(=O)CN(C)C(=O)[C@H]([C@@H](C)CC)NC(=O)[C@H](CC(C)C)N(C)C(=O)C[C@@H](C(=O)N2CCOCC2)N(C)C(=O)[C@H](C2CCCC2)N(C)C(=O)C2(CCCC2)NC(=O)[C@@H]2C[C@@H](O)CN2C(=O)[C@H](CCc2ccc(C(F)(F)F)c(Cl)c2)NC(=O)CN(C)C(=O)[C@@H]1Cc1ccc(C(F)(F)F)cc1 [PP0241] ([NMeL]I[Sar][Sar][NPrPhe(4-CF3)][Sar][hPhe(3-Cl-4-CF3)][Hyp][Ac5c][NMeGly(cPent)][NMeD]-Morpholide; lactam N-11)	C (A compound having a KD ratio of 0.1 or more and less than 3 is denoted as C)	–	B (a compound having 3 or more and less than 10 is denoted as B)	–	52	–	–	–
CCO[C@@H]1C[C@H]2C(=O)NC3(CCC3)C(=O)N(C)[C@@H](C3CCCC3)C(=O)N(C)[C@H](C(=O)N(C)C)CC(=O)N(C)[C@@H](C)C(=O)N[C@@H]([C@H](C)CC)C(=O)N(C)CC(=O)N(C)[C@H]3CCCCN(C3=O)[C@@H](Cc3ccc(C(F)(F)F)cc3)C(=O)N(C)CC(=O)N[C@@H](CCc3cc(F)c(C(F)(F)F)c(F)c3)C(=O)N2C1 [PP0730]	–	–	–	–	94	–	C (A compound having a KD ratio of 0.1 or more and less than 3 is denoted as C)	C (A compound having a KD ratio of 0.1 or more and less than 3 is denoted as C)
CCCO[C@@H]1C[C@H]2C(=O)NC3(CC(C)(C)C3)C(=O)N(C)[C@@H](C3CCCC3)C(=O)N(C)[C@H](C(=O)N3CCCCC3)CC(=O)N(C)[C@H]3CCCc4ccc(cc4)C[C@@H](C(=O)N(C)CC(=O)N[C@@H](CCc4ccc(C(F)(F)F)c(OC)c4)C(=O)N2C1)N1CC/C=C\C[C@@H](C1=O)N(C)C(=O)CN(C)C(=O)[C@H]([C@@H](C)CC)NC3=O [PP3064]	B (a compound having 3 or more and less than 10 is denoted as B)	370	B (a compound having 3 or more and less than 10 is denoted as B)	–	–	–	–	–
CCO[C@@H]1C[C@H]2C(=O)NC3(CCC3)C(=O)N(C)[C@@H](C3CCCC3)C(=O)N(C)[C@H](C(=O)N(C)C)CC(=O)N(C)[C@@H](CC)C(=O)N[C@@H]([C@@H](C)CC)C(=O)N(C)CC(=O)N(C)[C@H]3CCCCCN(C3=O)[C@@H](Cc3ccc(F)cc3C)C(=O)N(C)CC(=O)N[C@@H](CCc3cc(F)c(C(F)(F)F)c(F)c3)C(=O)N2C1 [PP0911]	B (a compound having 3 or more and less than 10 is denoted as B)	60	B (a compound having 3 or more and less than 10 is denoted as B)	–	–	–	–	–
CCO[C@@H]1C[C@H]2C(=O)NC3(CCC3)C(=O)N(C)[C@@H](C3CCCC3)C(=O)N(CCc3ccccc3)[C@H](C(=O)N(C)C)CC(=O)N(C)[C@@H](CC)C(=O)N[C@@H]([C@@H](C)CC)C(=O)N(C)CC(=O)N(C)[C@H]3CCCCN(C3=O)[C@@H](Cc3ccc(C(F)(F)F)cc3)C(=O)N(C)CC(=O)N[C@@H](CCc3cc(F)c(C(F)(F)F)c(F)c3)C(=O)N2C1 [PP0647]	–	–	–	–	680	–	B (a compound having 3 or more and less than 10 is denoted as B)	C (A compound having a KD ratio of 0.1 or more and less than 3 is denoted as C)
CCCN1C(=O)[C@@H]2CCN2C(=O)[C@H](C)N(C)C(=O)[C@H]([C@@H](C)CC)NC(=O)[C@H](CC(C)C)N(C)C(=O)C[C@@H](C(=O)N(C)C)N(C)C(=O)[C@H](C2CCCC2)N(C)C(=O)C2(CCCC2)NC(=O)[C@@H]2CC(F)(F)CN2C(=O)[C@H](CCc2ccc(C(F)(F)F)c(Cl)c2)NC(=O)CN(C)C(=O)[C@@H]1Cc1ccc(C(F)(F)F)cc1 [PP0436] ([NMeL]I[NMeA][Aze][NPrPhe(4-CF3)][Sar][hPhe(3-Cl-4-CF3)][Pro(4,4-F2)][Ac5c][NMeGly(cPent)][NMeD]-NMe2; lactam N-11)	–	–	–	–	54	–	C (A compound having a KD ratio of 0.1 or more and less than 3 is denoted as C)	C (A compound having a KD ratio of 0.1 or more and less than 3 is denoted as C)
CCO[C@@H]1C[C@H]2C(=O)NC3(CCC3)C(=O)N(C)[C@@H](C3CCCC3)C(=O)N(C)[C@H](C(=O)N3CCOCC3)CC(=O)N(C)[C@@H](CC)C(=O)N[C@@H]([C@@H](C)CC)C(=O)N3CC[C@H]3C(=O)N(C)[C@H]3CC(C)=CCN(C3=O)[C@@H](Cc3ccc(C(F)(F)F)cc3)C(=O)N(C)CC(=O)N[C@@H](CCc3cc(F)c(C(F)(F)F)c(F)c3)C(=O)N2C1 [PP1042]	C (A compound having a KD ratio of 0.1 or more and less than 3 is denoted as C)	1300	C (A compound having a KD ratio of 0.1 or more and less than 3 is denoted as C)	–	–	–	–	–
